According to ChEMBL document CHEMBL2069208, “Isolactarane and sterpurane sesquiterpenoids from the basidiomycete Phlebia uda” (J Nat Prod, 2012):
The source made the active and inactive calls. The calls are words filed in the database; no cut-off is given here.

Key:
Jurkat [1] = assay: Growth inhibition of human Jurkat cells; format: functional, cell-based
HepG2 = assay: Growth inhibition of human HepG2 cells up to 50 ug/ml; format: functional, cell-based
Fusarium graminearum = assay: Inhibition of spore germination of Fusarium graminearum assessed as compound concentration causing 75 to 100% germination inhibition; format: functional
Pyricularia grisea = assay: Inhibition of spore germination of Magnaporthe grisea assessed as compound concentration causing 75 to 100% germination inhibition; format: functional
Phytophthora infestans = assay: Inhibition of spore germination of Phytophthora infestans assessed as compound concentration causing 75 to 100% germination inhibition; format: functional
Botrytis cinerea = assay: Inhibition of spore germination of Botrytis cinerea assessed as compound concentration causing 75 to 100% germination inhibition; format: functional
Jurkat [2] = assay: Growth inhibition of human Jurkat cells up to 50 ug/mL; format: functional, cell-based

SMILES | IC50 (Jurkat [1]) [µM] | growth inhibition (GI) (HepG2) | INH (Fusarium graminearum) [µg/mL] | INH (Pyricularia grisea) [µg/mL] | INH (Phytophthora infestans) [µg/mL] | INH (Botrytis cinerea) [µg/mL] | growth inhibition (GI) (Jurkat [2])
CC1=C2C[C@@](C)(C(=O)O)C[C@H]2C[C@]2(C)CC[C@]12O | 160 | inactive | – | – | – | – | –
CC1(C)CC2=C(C=O)[C@@]34C[C@]3(C[C@@H]2C1)C(=O)OC4O (stereo not given in full) | – | – | 10 | 10 | 25 | 50 | –
CC1=C2C[C@@](C)(CO)C[C@H]2C[C@]2(C)CC[C@]12O | – | inactive | – | – | – | – | inactive
CCC(C)CCOC1OC(=O)[C@]23C[C@@H]4CC(C)(C)CC4=C(C=O)[C@]12C3 (mixture of isomers) [UDALACTARANE A] | 101 | inactive | 10 | 10 | 100 | >100 | –
CC1=C2C[C@@](C)(COC3OC(=O)[C@]45C[C@@H]6CC(C)(C)CC6=C(C=O)[C@]34C5)C[C@H]2C[C@]2(C)CC[C@]12O (mixture of isomers) [UDALACTARANE B] | 42 | inactive | 5 | – | 10 | >100 | –
Cc1cc(C2CCCCC2)n(O)c(=O)c1 [CICLOPIROX] | – | – | – | – | – | 50 | –
